Measured values taken from patent publication US4180559A, “Coated 1-(2-chlorodibenzo[b,f]oxepin-10-yl)-4-methylpiperazine compositions” (Richardson-Merrell Inc., priority 1978, dated 1979).
In brackets after ≈: the same amount, converted by molar mass. Entries after “also recorded” stand apart in the source; their conditions may differ. Read-outs that look alike come from different tables or passages of the source.

Assays:
[1] = Absorption into the bloodstream (general statement); settings: uncoated drug; degradation at low pH in the stomach
[2] = Acid hydrolysis / half-life of the compound at various pH and temperature; format: physicochemical; settings: for half-life: 50% methanol-water
From the text: However, paradoxically, under the acidic conditions of maximum dissolution and absorption, the drug substance is itself the most labile from a chemical point of view. As previously indicated, the compound belongs to a class of enamines that are readily hydrolyzed under acidic aqueous conditions.

[3] = Solubility of the compound in aqueous solutions and in 50% methanol-water at various pH; format: physicochemical
From the text: On the other hand, if the drug is exposed to the relatively alkaline portions of the intestinal tract, i.e., a pH greater than 7.5, the drug remains undissolved and is unavailable for absorption in humans.

[4] = Anti-psychotic properties and liabilities (general statement)

absorption into the bloodstream [1]: poor and erratic absorption
half-life ([2]; pH 1.5, 25° C., pH 1.5, 50% (v/v) methanol-water): 0.12 h
half-life ([2]; pH 1.5, 37° C., pH 1.5): 0.12 h
half-life ([2]; pH 6, 25° C., pH 6.0, 50% (v/v) methanol-water): 269 h
half-life ([2]; pH 6, 37° C., pH 6.0): 159 h
acid lability ([2]; aqueous conditions): high degree of acid lability
solubility ([3]; 50% methanol-water system, pH 8.0): totally insoluble
solubility ([3]; aqueous solution, pH 1.0, read-out: solubility): 20000 µg/mL (≈ 61.2 mM)
solubility ([3]; aqueous solution, pH 3.0, read-out: solubility): 15000 µg/mL (≈ 45.9 mM)
solubility ([3]; aqueous solution, pH 4.3, read-out: solubility): 4000 µg/mL (≈ 12.2 mM)
solubility ([3]; aqueous solutions, pH greater than 7.5): insoluble
solubility ([3]; organic solvent or mixture, 50% methanol-water system, pH 7.0, read-out: solubility): 2000 µg/mL (≈ 6.12 mM)
extrapyramidal liabilities [4]: minimal
SMILES: CN1CCN(C2=Cc3cc(Cl)ccc3Oc3ccccc32)CC1 [1-(2-Chlorodibenzo[b,f]oxepin-10-yl)-4-methylpiperazine]
anti-psychotic properties [4]: potent anti-psychotic properties; also recorded: particularly useful antipsychotic properties
cardiovascular liabilities [4]: minimal
